O=c1[nH]c2ccccc2n1CCCN1CCC(n2c(=O)[nH]c3cc(Cl)ccc32)CC1
solubility (mole fraction) (in DMAc, 278.15 K): 0.000805
solubility (mole fraction) (in DMAc, 283.15 K): 0.000971
solubility (mole fraction) (in DMAc, 288.15 K): 0.00116
solubility (mole fraction) (in DMAc, 293.15 K): 0.00136
solubility (mole fraction) (in DMAc, 298.15 K): 0.00158
solubility (mole fraction) (in DMAc, 303.15 K): 0.00182
solubility (mole fraction) (in DMAc, 308.15 K): 0.00208
solubility (mole fraction) (in DMAc, 313.15 K): 0.00234
solubility (mole fraction) (in DMAc, 318.15 K): 0.00262
solubility (mole fraction) (in DMF, 278.15 K): 7.44e-05
solubility (mole fraction) (in DMF, 283.15 K): 9.91e-05
solubility (mole fraction) (in DMF, 288.15 K): 0.000131
solubility (mole fraction) (in DMF, 293.15 K): 0.00017
solubility (mole fraction) (in DMF, 298.15 K): 0.000223
solubility (mole fraction) (in DMF, 303.15 K): 0.000282
solubility (mole fraction) (in DMF, 308.15 K): 0.000369
solubility (mole fraction) (in DMF, 313.15 K): 0.000471
solubility (mole fraction) (in DMF, 318.15 K): 0.000575
solubility (mole fraction) (in DMSO, 278.15 K): 0.000283
solubility (mole fraction) (in DMSO, 283.15 K): 0.00034
solubility (mole fraction) (in DMSO, 288.15 K): 0.000408
solubility (mole fraction) (in DMSO, 293.15 K): 0.000489
solubility (mole fraction) (in DMSO, 298.15 K): 0.000584
solubility (mole fraction) (in DMSO, 303.15 K): 0.000698
solubility (mole fraction) (in DMSO, 308.15 K): 0.000832
solubility (mole fraction) (in DMSO, 313.15 K): 0.00099
solubility (mole fraction) (in DMSO, 318.15 K): 0.00118
solubility (mole fraction) (in acetonitrile, 278.15 K): 1.2e-07
solubility (mole fraction) (in acetonitrile, 283.15 K): 1.85e-07
solubility (mole fraction) (in acetonitrile, 288.15 K): 2.54e-07
solubility (mole fraction) (in acetonitrile, 293.15 K): 3.43e-07
solubility (mole fraction) (in acetonitrile, 298.15 K): 4.6e-07
solubility (mole fraction) (in acetonitrile, 303.15 K): 6.68e-07
solubility (mole fraction) (in acetonitrile, 308.15 K): 8.73e-07
solubility (mole fraction) (in acetonitrile, 313.15 K): 1.07e-06
solubility (mole fraction) (in acetonitrile, 318.15 K): 1.46e-06
solubility (mole fraction) (in ethanol, 278.15 K): 8.55e-06
solubility (mole fraction) (in ethanol, 283.15 K): 1.09e-05
solubility (mole fraction) (in ethanol, 288.15 K): 1.47e-05
solubility (mole fraction) (in ethanol, 293.15 K): 1.86e-05
solubility (mole fraction) (in ethanol, 298.15 K): 2.28e-05
solubility (mole fraction) (in ethanol, 303.15 K): 2.93e-05
solubility (mole fraction) (in ethanol, 308.15 K): 3.6e-05
solubility (mole fraction) (in ethanol, 313.15 K): 4.53e-05
solubility (mole fraction) (in ethanol, 318.15 K): 5.35e-05
solubility (mole fraction) (in ethylene glycol, 278.15 K): 1.11e-05
solubility (mole fraction) (in ethylene glycol, 283.15 K): 1.43e-05
solubility (mole fraction) (in ethylene glycol, 288.15 K): 1.84e-05
solubility (mole fraction) (in ethylene glycol, 293.15 K): 2.21e-05
solubility (mole fraction) (in ethylene glycol, 298.15 K): 2.93e-05
solubility (mole fraction) (in ethylene glycol, 303.15 K): 3.47e-05
solubility (mole fraction) (in ethylene glycol, 308.15 K): 4.43e-05
solubility (mole fraction) (in ethylene glycol, 313.15 K): 5.56e-05
solubility (mole fraction) (in ethylene glycol, 318.15 K): 6.6e-05
solubility (mole fraction) (in isobutanol, 278.15 K): 1.05e-05
solubility (mole fraction) (in isobutanol, 283.15 K): 1.35e-05
solubility (mole fraction) (in isobutanol, 288.15 K): 1.8e-05
solubility (mole fraction) (in isobutanol, 293.15 K): 2.23e-05
solubility (mole fraction) (in isobutanol, 298.15 K): 2.83e-05
solubility (mole fraction) (in isobutanol, 303.15 K): 3.67e-05
solubility (mole fraction) (in isobutanol, 308.15 K): 4.58e-05
solubility (mole fraction) (in isobutanol, 313.15 K): 5.68e-05
solubility (mole fraction) (in isobutanol, 318.15 K): 7.17e-05
solubility (mole fraction) (in isopropanol, 278.15 K): 7.95e-06
solubility (mole fraction) (in isopropanol, 283.15 K): 9.92e-06
solubility (mole fraction) (in isopropanol, 288.15 K): 1.45e-05
solubility (mole fraction) (in isopropanol, 293.15 K): 1.84e-05
solubility (mole fraction) (in isopropanol, 298.15 K): 2.27e-05
solubility (mole fraction) (in isopropanol, 303.15 K): 2.74e-05
solubility (mole fraction) (in isopropanol, 308.15 K): 3.45e-05
solubility (mole fraction) (in isopropanol, 313.15 K): 4.33e-05
solubility (mole fraction) (in isopropanol, 318.15 K): 5.42e-05
solubility (mole fraction) (in methanol, 278.15 K): 8.19e-06
solubility (mole fraction) (in methanol, 283.15 K): 9.89e-06
solubility (mole fraction) (in methanol, 288.15 K): 1.21e-05
solubility (mole fraction) (in methanol, 293.15 K): 1.6e-05
solubility (mole fraction) (in methanol, 298.15 K): 2.07e-05
solubility (mole fraction) (in methanol, 303.15 K): 2.56e-05
solubility (mole fraction) (in methanol, 308.15 K): 3.17e-05
solubility (mole fraction) (in methanol, 313.15 K): 4.03e-05
solubility (mole fraction) (in methanol, 318.15 K): 4.9e-05
solubility (mole fraction) (in n-butanol, 278.15 K): 1.23e-05
solubility (mole fraction) (in n-butanol, 283.15 K): 1.64e-05
solubility (mole fraction) (in n-butanol, 288.15 K): 2.19e-05
solubility (mole fraction) (in n-butanol, 293.15 K): 2.85e-05
solubility (mole fraction) (in n-butanol, 298.15 K): 3.66e-05
solubility (mole fraction) (in n-butanol, 303.15 K): 4.45e-05
solubility (mole fraction) (in n-butanol, 308.15 K): 5.47e-05
solubility (mole fraction) (in n-butanol, 313.15 K): 7.02e-05
solubility (mole fraction) (in n-butanol, 318.15 K): 8.57e-05
solubility (mole fraction) (in n-propanol, 278.15 K): 1.18e-05
solubility (mole fraction) (in n-propanol, 283.15 K): 1.45e-05
solubility (mole fraction) (in n-propanol, 288.15 K): 1.9e-05
solubility (mole fraction) (in n-propanol, 293.15 K): 2.55e-05
solubility (mole fraction) (in n-propanol, 298.15 K): 3.25e-05
solubility (mole fraction) (in n-propanol, 303.15 K): 4.17e-05
solubility (mole fraction) (in n-propanol, 308.15 K): 5.05e-05
solubility (mole fraction) (in n-propanol, 313.15 K): 6.43e-05
solubility (mole fraction) (in n-propanol, 318.15 K): 7.85e-05
solubility (mole fraction) (in water, 278.15 K): 8.77e-08
solubility (mole fraction) (in water, 283.15 K): 1.05e-07
solubility (mole fraction) (in water, 288.15 K): 1.38e-07
solubility (mole fraction) (in water, 293.15 K): 1.75e-07
solubility (mole fraction) (in water, 298.15 K): 2.22e-07
solubility (mole fraction) (in water, 303.15 K): 2.76e-07
solubility (mole fraction) (in water, 308.15 K): 3.35e-07
solubility (mole fraction) (in water, 313.15 K): 4.16e-07
solubility (mole fraction) (in water, 318.15 K): 5.11e-07

Reference: BigSolDB 2.1
